ChEMBL document CHEMBL1130950, “Synthesis and structure-activity relationship of substituted 1,2,3,4-tetrahydroisoquinolines as N-type calcium channel blockers” (Bioorg Med Chem Lett, 1998)

Target: Voltage-dependent N-type calcium channel subunit alpha-1B (Homo sapiens, UniProt Q00975)
Test: Inhibition of N-type calcium channel in IMR-32 human neuroblastoma cells
Assay type: cell-based

Voltage-dependent N-type calcium channel subunit alpha-1B, sequence (Q00975 whole entry): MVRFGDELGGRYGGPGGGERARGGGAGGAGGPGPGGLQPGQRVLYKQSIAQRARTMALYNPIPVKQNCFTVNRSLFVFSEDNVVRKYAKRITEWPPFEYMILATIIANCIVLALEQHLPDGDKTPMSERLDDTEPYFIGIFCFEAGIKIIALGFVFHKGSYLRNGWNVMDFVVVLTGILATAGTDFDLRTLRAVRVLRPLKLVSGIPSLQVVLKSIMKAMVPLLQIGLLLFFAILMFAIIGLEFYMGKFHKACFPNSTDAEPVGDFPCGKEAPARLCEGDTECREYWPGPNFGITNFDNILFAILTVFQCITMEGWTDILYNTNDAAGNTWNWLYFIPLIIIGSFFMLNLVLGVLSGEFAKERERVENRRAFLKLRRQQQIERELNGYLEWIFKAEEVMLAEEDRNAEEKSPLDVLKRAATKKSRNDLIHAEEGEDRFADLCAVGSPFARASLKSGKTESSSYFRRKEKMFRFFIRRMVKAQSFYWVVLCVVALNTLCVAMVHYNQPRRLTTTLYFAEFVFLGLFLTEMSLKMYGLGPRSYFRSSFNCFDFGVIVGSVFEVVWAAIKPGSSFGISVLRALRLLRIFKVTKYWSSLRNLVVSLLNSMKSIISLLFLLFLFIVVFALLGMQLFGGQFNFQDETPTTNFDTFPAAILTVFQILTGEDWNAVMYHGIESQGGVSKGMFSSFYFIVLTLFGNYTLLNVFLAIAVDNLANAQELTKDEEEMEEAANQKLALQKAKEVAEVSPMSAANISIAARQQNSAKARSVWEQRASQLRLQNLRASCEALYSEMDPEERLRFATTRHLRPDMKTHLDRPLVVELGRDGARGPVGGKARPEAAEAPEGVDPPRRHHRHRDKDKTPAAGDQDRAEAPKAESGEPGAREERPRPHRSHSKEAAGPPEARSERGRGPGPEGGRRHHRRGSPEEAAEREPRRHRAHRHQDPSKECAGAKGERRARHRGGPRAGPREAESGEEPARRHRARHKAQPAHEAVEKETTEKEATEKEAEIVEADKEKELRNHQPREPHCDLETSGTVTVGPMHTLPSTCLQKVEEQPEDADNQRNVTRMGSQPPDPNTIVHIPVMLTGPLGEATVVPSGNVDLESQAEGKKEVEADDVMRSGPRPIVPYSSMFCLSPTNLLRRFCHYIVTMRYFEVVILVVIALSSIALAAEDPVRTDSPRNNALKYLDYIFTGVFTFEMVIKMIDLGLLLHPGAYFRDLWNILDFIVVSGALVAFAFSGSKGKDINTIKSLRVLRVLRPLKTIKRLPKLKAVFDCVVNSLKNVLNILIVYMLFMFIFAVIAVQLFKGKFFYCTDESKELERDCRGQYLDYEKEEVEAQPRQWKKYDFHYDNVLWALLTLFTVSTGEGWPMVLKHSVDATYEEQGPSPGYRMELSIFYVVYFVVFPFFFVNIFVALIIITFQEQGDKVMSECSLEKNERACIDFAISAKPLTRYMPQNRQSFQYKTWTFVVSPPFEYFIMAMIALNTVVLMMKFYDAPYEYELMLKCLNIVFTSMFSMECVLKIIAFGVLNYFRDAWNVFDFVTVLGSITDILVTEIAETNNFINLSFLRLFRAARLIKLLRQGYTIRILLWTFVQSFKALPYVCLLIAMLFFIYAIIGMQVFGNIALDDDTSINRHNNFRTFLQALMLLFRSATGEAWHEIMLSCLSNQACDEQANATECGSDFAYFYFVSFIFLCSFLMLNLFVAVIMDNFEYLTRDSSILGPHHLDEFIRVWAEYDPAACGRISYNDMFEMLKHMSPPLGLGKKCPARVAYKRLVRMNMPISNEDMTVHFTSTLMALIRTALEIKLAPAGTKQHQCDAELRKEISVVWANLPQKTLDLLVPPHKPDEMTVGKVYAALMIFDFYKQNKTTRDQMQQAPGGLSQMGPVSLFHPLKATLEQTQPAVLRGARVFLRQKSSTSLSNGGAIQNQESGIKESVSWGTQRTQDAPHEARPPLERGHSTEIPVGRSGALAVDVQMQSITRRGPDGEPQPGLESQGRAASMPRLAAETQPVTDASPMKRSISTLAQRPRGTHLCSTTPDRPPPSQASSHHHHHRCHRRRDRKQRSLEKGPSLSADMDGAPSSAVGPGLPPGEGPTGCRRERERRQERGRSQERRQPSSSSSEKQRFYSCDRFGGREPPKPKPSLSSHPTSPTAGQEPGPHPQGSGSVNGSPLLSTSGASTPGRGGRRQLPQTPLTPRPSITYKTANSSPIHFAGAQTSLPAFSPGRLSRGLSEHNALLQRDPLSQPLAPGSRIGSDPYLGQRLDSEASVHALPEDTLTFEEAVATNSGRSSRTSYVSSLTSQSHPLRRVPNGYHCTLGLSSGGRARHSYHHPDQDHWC

IC50 [µM] | SMILES
1.1 | Oc1c(CN2CCCCCC2)ccc2c1CCN(CCCCCC(c1ccccc1)c1ccccc1)C2
2.5 | Oc1c(CN2CCCCCC2)ccc2c1CCN(CCCCC=C(c1ccccc1)c1ccccc1)C2
4.4 | Oc1c(CN2CCCCC2)cc(Cc2cc(CN3CCCCC3)c(O)c3ncccc23)c2ccncc12
10 | COc1ccc(CCCCN2CCc3c(ccc(CN4CCCCCC4)c3O)C2)cc1
0.46 | Oc1c(CN2CCCCCC2)ccc2c1CCN(CCCC(c1ccccc1)c1ccccc1)C2
35 | Oc1c(CN2CCCCCC2)ccc2cnccc12
15 | Oc1c(CN2CCCCCC2)ccc2c1CCN(CCCCc1ccccc1)C2
7.4 | Oc1c(CN2CCCCCC2)ccc2c1CCN(CCC(c1ccccc1)c1ccccc1)C2
5.1 | Oc1c(CN2CCCCCC2)ccc2c1CCN(CCCCc1ccc(F)cc1)C2
4.8 | Oc1c(CN2CCCCCC2)ccc2c1CCN(CCCCC(c1ccccc1)c1ccccc1)C2

SMILES | IC50 [µM]
CN1CCc2c(ccc(CN3CCCCCC3)c2O)C1 | > 100
